This note sets out measurements from patent EP1377579B1 (Aventis Pharmaceuticals Inc., priority 2000, dated 2002).

SMILES strings stand for the structures. pIC50: −log10 of the molar value. Counter-ions that a name gives are not always drawn. Where only a bound is given, the exact number is not on record here.

The target of one assay is cdk4/cyclin D1 (Homo sapiens, UniProt P11802). Put plainly: Cyclin-dependent kinase assay, cdk4/cyclin D1. It counts as biochemical. The settings on record: cyclin D1/cdk4; GST-pRb substrate, 10 µM ATP.
Chain of cdk4/cyclin D1 (P11802 whole entry): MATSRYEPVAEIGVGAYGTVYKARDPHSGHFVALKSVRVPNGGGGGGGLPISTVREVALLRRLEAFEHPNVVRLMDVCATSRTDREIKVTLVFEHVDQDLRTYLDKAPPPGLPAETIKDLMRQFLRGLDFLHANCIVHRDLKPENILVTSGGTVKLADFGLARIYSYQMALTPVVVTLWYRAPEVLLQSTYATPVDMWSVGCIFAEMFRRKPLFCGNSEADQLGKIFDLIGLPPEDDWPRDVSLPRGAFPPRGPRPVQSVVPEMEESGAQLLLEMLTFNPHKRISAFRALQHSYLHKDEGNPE
Chain of cdk4/cyclin D1 (P24385 whole entry partner): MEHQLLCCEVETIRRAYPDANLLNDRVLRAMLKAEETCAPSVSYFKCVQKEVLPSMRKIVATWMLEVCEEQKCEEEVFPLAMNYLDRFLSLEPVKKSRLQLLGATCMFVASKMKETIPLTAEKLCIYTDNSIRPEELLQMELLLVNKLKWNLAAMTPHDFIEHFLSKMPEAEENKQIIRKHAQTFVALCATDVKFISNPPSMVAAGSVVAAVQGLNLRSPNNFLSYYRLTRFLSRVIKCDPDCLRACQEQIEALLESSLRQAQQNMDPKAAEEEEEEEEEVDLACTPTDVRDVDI
The target of the next assay is cdk2/cyclin E (Homo sapiens, UniProt P24941). Description: Cyclin-dependent kinase assay, cdk2/cyclin E. The settings on record: CDK2 IC50, nM, GST-pRb substrate, 10 µM ATP.
A further assay deals with MDA-MB-435. Put plainly: In vitro proliferation assay (MTT), MDA-MB-435. Type of assay: cell-based, human. Conditions: Homo sapiens, MDA-MB-435, MTT assay; value (SD, n) where given; read-out: MB-435 Breast (IC50 µM). In short, it runs like this:
(§1)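 Tetrazolium (MTT) reduction measures live cells remaining after 3 days with test compound, following overnight attachment at 1000–2500 cells/well. Dye is taken up in DMSO and read at 570 nm.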

The subject of another assay is PC-3. Put plainly: In vitro proliferation assay (MTT), PC-3. It counts as cell-based, human. Conditions: Homo sapiens, PC-3, MTT assay; value (SD, n) where given; read-out: PC-3 Prostate (IC50 µM). In short, it runs like this: as §1
The target in the next assay is cdk1/cyclin B (Homo sapiens, UniProt P06493). Description: Cyclin-dependent kinase assay, cdk1/cyclin B. Conditions: CDK1 IC50, nM, Histone H1, 10 µM ATP.
Chain of cdk1/cyclin B (P06493 whole entry): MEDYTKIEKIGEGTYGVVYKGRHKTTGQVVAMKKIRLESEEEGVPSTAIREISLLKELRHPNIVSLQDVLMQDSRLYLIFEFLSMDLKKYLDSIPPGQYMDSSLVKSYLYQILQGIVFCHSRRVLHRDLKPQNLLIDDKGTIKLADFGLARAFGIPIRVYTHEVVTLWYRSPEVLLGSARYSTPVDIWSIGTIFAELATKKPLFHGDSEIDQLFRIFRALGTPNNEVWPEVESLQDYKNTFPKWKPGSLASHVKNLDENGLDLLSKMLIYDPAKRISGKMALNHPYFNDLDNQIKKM
Chain of cdk1/cyclin B (P14635 whole entry partner): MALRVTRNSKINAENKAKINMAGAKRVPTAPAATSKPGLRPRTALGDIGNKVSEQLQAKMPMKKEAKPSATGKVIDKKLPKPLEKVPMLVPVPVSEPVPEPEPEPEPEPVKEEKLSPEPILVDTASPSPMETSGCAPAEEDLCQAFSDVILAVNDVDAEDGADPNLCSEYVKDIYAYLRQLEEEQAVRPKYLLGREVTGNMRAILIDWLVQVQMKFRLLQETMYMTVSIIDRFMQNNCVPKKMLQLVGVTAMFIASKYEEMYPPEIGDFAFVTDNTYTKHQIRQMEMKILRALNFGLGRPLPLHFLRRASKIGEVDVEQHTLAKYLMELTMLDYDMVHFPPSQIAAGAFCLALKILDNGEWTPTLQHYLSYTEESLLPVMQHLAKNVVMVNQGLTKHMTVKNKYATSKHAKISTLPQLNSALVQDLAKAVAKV

The compound `CC(=O)c1cccc(NC(=O)N2CCC(Nc3nc(N[C@H]4CC[C@H](N)CC4)nc4c3ncn4C3CCCC3)CC2)c1` [compound 189, trans-4-[2-(4-Amino-cyclohexylamino)-9-cyclopentyl-9H-purin-6-ylamino]-piperidine-1-carboxylic acid (3-acetyl-phenyl)-amide dihydrochloride] gave a pIC50 against cdk4/cyclin D1 of 7.18. For the same compound, the IC50 on cdk2/cyclin E worked out at 28 nM; in the assay on MDA-MB-435, 1 µM; with PC-3, 1.37 µM; against cdk1/cyclin B, 20 nM.
`C[C@H](O)C(=O)N1CCC(Nc2nc(N[C@H]3CC[C@H](N)CC3)nc3c2ncn3C2CCCC2)CC1` [compound 47, trans-(S)-1-{4-[2-(4-Amino-cyclohexylamino)-9-cyclopentyl-9H-purin-6-ylamino]-piperidin-1-yl}-2-hydroxy-propan-1-one dihydrochloride] had a pIC50 against cdk4/cyclin D1 of 6.44. Further, the IC50 against cdk2/cyclin E is 14 nM; with MDA-MB-435, 1.99 µM; in the assay with PC-3, 1.8 µM; against cdk1/cyclin B it was 36 nM.
The corresponding values for `COc1ccc(NC(=O)N2CCC(Nc3nc(N[C@H]4CC[C@H](N)CC4)nc4c3ncn4C3CCCC3)CC2)c(OC)c1` [compound 151, trans-4-[2-(4-Amino-cyclohexylamino)-9-cyclopentyl-9H-purin-6-ylamino]-piperidine-1-carboxylic acid (2,4-dimethoxy-phenyl)-amide dihydrochloride] are 6.41, 32 nM, 0.44 µM, 0.5 µM and 60 nM.
The corresponding values for `N[C@H]1CC[C@H](Nc2nc(NC3CCN(C(=O)c4ccc(Cl)cc4Cl)CC3)c3ncn(C4CCCC4)c3n2)CC1` [compound 78, trans-1-{4-[2-(4-Amino-cyclohexylamino)-9-cyclopentyl-9H-purin-6-ylamino]-piperidin-1-yl}-1-(2,4-dichloro-phenyl)-methanone] are 6.28, 155 nM, 1.56 µM, 1.53 µM and 101 nM.
The corresponding values for `N[C@H]1CC[C@H](Nc2nc(NC3CCN(S(=O)(=O)c4ccc(C(=O)O)cc4)CC3)c3ncn(C4CCCC4)c3n2)CC1` [compound 126, trans-4-{4-[2-(4-Amino-cyclohexylamino)-9-cyclopentyl-9H-purin-6-ylamino]-piperidine-1-sulfonyl}-benzoic acid dihydrochloride] are 7.26, 6 nM, 19.7 µM, 16.8 µM and 20 nM.
As for `CC(C)n1cnc2c(NC3CCN(C(=O)COc4ccccc4)CC3)nc(N[C@H]3CC[C@H](N)CC3)nc21` [compound 80, trans-1-{4-[2-(4-Amino-cyclohexylamino)-9-isopropyl-9H-purin-6-ylamino]-piperidin-1-yl}-2-phenoxy-ethanone dihydrochloride], the pIC50 at cdk4/cyclin D1 is 5.09. For the same compound, the IC50 against cdk2/cyclin E was 39 nM; in the assay with MDA-MB-435, above 50 µM; with PC-3, above 50 µM; at cdk1/cyclin B, 244 nM.
For the compound `N[C@H]1CC[C@H](Nc2nc(NC3CCN(C(=O)NCCc4ccccc4)CC3)c3ncn(C4CCCC4)c3n2)CC1` [compound 197, trans-4-[2-(4-Amino-cyclohexylamino)-9-cyclopentyl-9H-purin-6-ylamino]-piperidine-1-carboxylic acid phenethyl-amide dihydrochloride], the pIC50 against cdk4/cyclin D1 was 6.42. Besides, the IC50 at cdk2/cyclin E turned out to be 8 nM; in the assay with MDA-MB-435, 0.91 µM; in the assay on PC-3, 1.09 µM; against cdk1/cyclin B, 200 nM.
The like results for `N[C@H]1CC[C@H](Nc2nc(NC3CCN(C(=O)Nc4ccc(Cl)cc4Cl)CC3)c3ncn(C4CCCC4)c3n2)CC1` [compound 167, trans-4-[2-(4-Amino-cyclohexylamino)-9-cyclopentyl-9H-purin-6-ylamino]-piperidine-1-carboxylic acid (2,4-dichloro-phenyl)-amide dihydrochloride] were, in that order, 7.20, 54 nM, 0.28 µM, 0.38 µM and 4 nM.
At cdk4/cyclin D1, `N[C@H]1CC[C@H](Nc2nc(NC3CCN(C(=O)Cc4ccc(F)cc4)CC3)c3ncn(C4CCCC4)c3n2)CC1` [compound 48, trans-1-{4-[2-(4-Amino-cyclohexylamino)-9-cyclopentyl-9H-purin-6-ylamino]-piperidin-1-yl}-2-(4-fluoro-phenyl)-ethanone dihydrochloride] showed a pIC50 of 6.30. Further, the IC50 came out at 61 nM on cdk2/cyclin E, 0.75 µM in the assay with MDA-MB-435, 0.84 µM in the assay on PC-3 and 48 nM at cdk1/cyclin B.
The like results for `N[C@H]1CC[C@H](Nc2nc(NC3CCN(C(=O)NC(=O)c4ccccc4)CC3)c3ncn(C4CCCC4)c3n2)CC1` [compound 172, trans-N-(1-{4-[2-(4-Amino-cyclohexylamino)-9-cyclopentyl-9H-purin-6-ylamino]-piperidin-1-yl}-methanoyl)-benzamide dihydrochloride] were, in that order, 6.08, 62 nM, 1.16 µM, 1.04 µM and 23 nM.
The like results for `N[C@H]1CC[C@H](Nc2nc(NC3CCN(S(=O)(=O)c4cccc([N+](=O)[O-])c4)CC3)c3ncn(C4CCCC4)c3n2)CC1` [compound 127, trans-N^2-(4-Amino-cyclohexyl)-9-cyclopentyl-N^6-[1-(3-nitro-benzenesulfonyl)-piperidin-4-yl]-9H-purine-2,6-diamine dihydrochloride] were, in that order, 7.32, 17 nM, 0.61 µM, 0.62 µM and 14 nM.
The corresponding values for `CC(C)(C)CC(=O)N1CCC(Nc2nc(N[C@H]3CC[C@H](N)CC3)nc3c2ncn3C2CCCC2)CC1` [compound 51, trans-1-{4-[2-(4-Amino-cyclohexylamino)-9-cyclopentyl-9H-purin-6-ylamino]-piperidin-1-yl}-3,3-dimethyl-butan-1-one dihydrochloride] are 7.00, 65 nM, 0.42 µM, 0.5 µM and 109 nM.
As for `C=CCCC(=O)N1CCC(Nc2nc(N[C@H]3CC[C@H](N)CC3)nc3c2ncn3C2CCCC2)CC1` [compound 49, trans-1-{4-[2-(4-Amino-cyclohexylamino)-9-cyclopentyl-9H-purin-6-ylamino]-piperidin-1-yl}-pent-4-en-1-one dihydrochloride], the pIC50 against cdk4/cyclin D1 was 7.06. The IC50 on cdk2/cyclin E was 49 nM; in the assay on MDA-MB-435 it was 1.23 µM; with PC-3, 0.92 µM; against cdk1/cyclin B, 121 nM.
The like results for `N[C@H]1CC[C@H](Nc2nc(NC3CCN(S(=O)(=O)CC(F)(F)F)CC3)c3ncn(C4CCCC4)c3n2)CC1` [compound 133, trans-N^2-(4-Amino-cyclohexyl)-9-cyclopentyl-N^6-[1-(2,2,2-trifluoro-ethanesulfonyl)-piperidin-4-yl]-9H-purine-2,6-diamine dihydrochloride] were, in that order, 7.07, 55 nM, 9.1 µM, 8.97 µM and 200 nM.
